{
  "source": "patent US12350300B2",
  "about": "“Use of dopamine producing products to increase vaccine efficacy” (Iowa State University Research Foundation, Inc., priority 2021, dated 2025)",
  "origin": "cited, not measured here",
  "key": {"mouse colitis": {"test_system": "mouse colitis", "settings": "Herak-Perkovic 2001"}, "longitudinal muscle": {"test_system": "longitudinal muscle", "settings": "read-out: EC50, relaxation"}, "circular muscle": {"test_system": "circular muscle", "settings": "read-out: EC50, contractions"}},
  "data": [
    {"smiles": "NCCc1ccc(O)c(O)c1", "note": "[dopamine]", "values": [
      {"measurement": "effect against the development of inflammation", "setting": "mouse colitis", "value": "protective effect"},
      {"measurement": "EC50", "setting": "longitudinal muscle", "value": 29, "unit": "µM"},
      {"measurement": "EC50", "setting": "circular muscle", "value": 6.3, "unit": "µM"}
    ]}
  ]
}
